The text below walks through data of patent US5399565A, “Pyrazolidinone CCK and gastrin antagonists and pharmaceutical formulations therof” (priority 1993, dated 1995).

Test [1] addresses T1, brain CCK receptor (Mus musculus, UniProt P56481).
T1 construct: from tissue; host or cells: forebrain membranes of male CF-1 mice
T1 sequence (P56481 1-453): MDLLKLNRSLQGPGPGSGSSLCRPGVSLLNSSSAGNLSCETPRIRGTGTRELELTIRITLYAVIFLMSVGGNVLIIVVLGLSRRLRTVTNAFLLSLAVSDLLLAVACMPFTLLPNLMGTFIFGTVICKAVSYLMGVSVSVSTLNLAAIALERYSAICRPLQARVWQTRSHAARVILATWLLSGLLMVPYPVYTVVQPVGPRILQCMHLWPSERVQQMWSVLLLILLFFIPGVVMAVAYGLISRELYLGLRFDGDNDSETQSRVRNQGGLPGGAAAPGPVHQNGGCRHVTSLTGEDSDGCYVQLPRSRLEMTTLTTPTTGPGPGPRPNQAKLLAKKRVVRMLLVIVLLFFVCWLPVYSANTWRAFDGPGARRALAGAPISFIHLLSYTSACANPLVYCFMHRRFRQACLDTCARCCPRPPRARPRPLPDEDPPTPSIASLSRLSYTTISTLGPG
The experiment in a line: CCK receptor binding, mouse brain membranes (125I-CCK-8 sulfate). Conditions: for IC50: mouse brain membranes, read-out: Brain IC50; for inhibition at 1 µM / inhibition at 10 µM: read-out: Brain Percent Inhibition. The protocol: Brain CCK receptor binding was performed using mouse brain membranes according to the method of Chang and Lotti (Proc. Natl. Acad. Sci. 83: 4923-4926, 1986). Male CF-1 mice, 23-25 g were sacrificed by cervical dislocation, the forebrain removed and placed in ice cold 50 mM Tris buffer, pH 7.4. The tissue was homogenized in 100 volumes of the Tris buffer with a Brinkman Polytron or Tekmar Tissumizer and then centrifuged at 40,000 g for 10 min. Pellets were resuspended in Tris buffer, centrifuged as above and then resuspended in 100 volumes of assay buffer, pH 6.5 (20 mM N-2-hydroxyethyl-piperazine-N'-2-ethane sulfonic acid (HEPES), 1 mM ethylene glycol his (2-aminoethyl ether-N,N,N',N'-tetraacetic acid) (EGTA), 5 mM MgCl2, 130 mM NaCl, and 0.25 mg/ml bacitracin). The binding assay consisted of 50 μL of compound (or buffer for total binding), 50 μL of ^125 I-CCK-8 sulfate (20 pM) (Amersham IM- 159), 200 μL of assay buffer and 200 μL of homogenate (80-120 μg protein). The samples were incubated at room temperature (25°) for 2 hours, and they were then filtered through GF/B glass fiber filters (soaked in wash buffer for 2 hours before use) using a 48 well Brandel cell harvester designed for receptor binding. The filters were washed twice with 3 ml of 50 mM Tris buffer, pH 7.4, containing 0.01% BSA and then counted for radioactivity in plastic tubes with a Micromedic 10/600 automatic gamma counter.
Compounds were dissolved in dimethyl sulfoxide (DMSO) at a concentration of 10 mM and then further diluted with assay buffer. The concentration of DMSO in the incubation was 0.1% or less and had no effect on the assay at that level. IC-50 values of displacement curves were determined using 7 concentrations of compound and were calculated using the ALLFIT computer program of DeLean, Munson and Rodbard (Am. J. Physiol. 235: E97-E102, 1978). Non-specific binding was determined as the displacement of the radioligand by 100 nM CCK-8 sulfate.

Test [2] addresses T2, peripheral type CCK receptors in rat pancreas (Rattus norvegicus, UniProt P30551).
T2 construct: Pancreas was obtained from male Sprague-Dawley rats; from tissue; host or cells: pancreas membranes of male Sprague-Dawley rats
T2 sequence (P30551 1-444): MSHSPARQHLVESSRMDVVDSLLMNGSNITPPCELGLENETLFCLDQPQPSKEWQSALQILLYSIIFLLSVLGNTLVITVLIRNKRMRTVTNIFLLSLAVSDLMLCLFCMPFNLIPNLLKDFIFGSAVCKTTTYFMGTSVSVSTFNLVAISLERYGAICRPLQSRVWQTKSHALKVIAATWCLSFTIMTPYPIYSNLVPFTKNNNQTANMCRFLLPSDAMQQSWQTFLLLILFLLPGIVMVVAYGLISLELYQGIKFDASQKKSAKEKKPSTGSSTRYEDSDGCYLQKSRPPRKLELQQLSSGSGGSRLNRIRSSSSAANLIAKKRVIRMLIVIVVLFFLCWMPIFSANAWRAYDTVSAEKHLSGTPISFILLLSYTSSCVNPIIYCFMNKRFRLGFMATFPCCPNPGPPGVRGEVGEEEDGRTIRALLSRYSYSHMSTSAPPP
The experiment in a line: Binding to peripheral type CCK receptors in rat pancreas (3H-L-364,718). Particulars: read-out: Pancreas Percent Inhibition. The protocol: Binding to peripheral type CCK receptors in rat pancreas was done according to the method of Chang et al. (Mol. Pharmacol. 30: 212-217, 1986) using ^3 H-L364, 718. Pancreas was obtained from male Sprague-Dawley rats, 150-200 g, after decapitation, and dissected free from adipose and connective tissue. The tissue was homogenized in 30 volumes of 50 mM Tris buffer, pH 7.4 and centrifuged at 40,000 g for 10 min. The tissue pellet was washed by resuspension and centrifugation as described above. The final pellet was suspended in 500 volumes of assay buffer (50 mM Tris buffer, pH 7.4, 5 mM MgCl2, 0.14 mg/ml bacitracin, and 5 mM dithiothreitol) to give a protein concentration of 30-60 μg/200 μl . Reagent volumes for the assay were the same as those used for CCK binding to brain membranes. Tritium labeled L-364,718 (Dupont NEN, NET-971) was used as the ligand at a concentration of 0.4-0.6 nM. The samples were incubated 1 hour at room temperature and then filtered as described for the CCK-brain receptor. Scintillation cocktail was added to the filters which were counted for radioactivity using a Micromedic Taurus automatic liquid scintillation counter.
Compound samples were prepared and IC-50 values were determined as described for the CCK-brain experiments. Non-specific binding was that amount left bound to the filters after adding 100 nM L-364,718.

As usually defined, the IC50 is the concentration at which inhibition is half-maximal. Usually inhibition stands for how much of the control response was suppressed. As for `O=C1NN(C(=O)Oc2ccc([N+](=O)[O-])cc2)[C@@H](c2ccccc2)[C@@H]1c1ccccc1` (relative stereo) [Example 80], the IC50 in test [1] was 5.2 µM. The inhibition at 10 µM in test [2] is 9%.
For the molecule `O=C1NN(C(=O)Nc2ccc(F)c(Cl)c2)[C@H](c2ccccc2)[C@H]1c1ccccc1` (relative stereo) [Example 47], the half-maximal inhibitory concentration (IC50) in test [1] was determined as 0.39 µM. In addition, the inhibition at 10 µM in test [2] was 51%.
`C[C@@H](NC(=O)N1NC(=O)C(c2ccccc2)C1c1ccccc1)c1cccc2ccccc12` (some centres unmarked) [Example 104]: the IC50 in test [1] was found to be 0.9 µM. Besides, in test [2], the inhibition at 10 µM was found to be 47%.
With `COc1ccc(NC(=O)N2NC(=O)[C@H](c3ccccc3)[C@H]2c2ccccc2)cc1OC` (relative stereo) [Example 51], the inhibition at 1 µM in test [1] is 18%. Also, the inhibition at 10 µM in test [2] is 25%.
For the molecule `O=C1NN(C(=O)NCCCc2ccccc2)[C@@H](c2ccccc2)[C@@H]1c1ccccc1` (relative stereo) [Example 108], the IC50 in test [1] came out at 1.3 µM. Besides, the inhibition at 10 µM in test [2] was 87%.
Turning to `O=C1NN(C(=O)Nc2ccc(Br)cc2)C(c2ccc([N+](=O)[O-])cc2)C1c1ccccc1` (centres unmarked) [Example 119], in test [1], the IC50 amounted to 1.2 µM. In addition, in test [2], the inhibition at 10 µM amounted to 64%.
On to `O=C1NN(C(=O)NCCc2ccc(Cl)cc2)[C@@H](c2ccccc2)[C@@H]1c1ccccc1` (relative stereo) [Example 107], for which the inhibition at 10 µM is 86% in test [1] and 61% in test [2].
With `O=C1NN(C(=O)Nc2ccc(F)cc2F)[C@H](c2ccccc2)[C@H]1c1ccccc1` (relative stereo) [Example 56], the inhibition at 1 µM in test [1] worked out at 25%. Besides, in test [2], the inhibition at 10 µM turned out to be 15%.
As for `O=C1NN(C(=O)Cc2ccc(C(F)(F)F)cc2)[C@H](c2ccccc2)[C@H]1c1ccccc1` (relative stereo) [Example 77], the inhibition at 10 µM in test [1] was 56%; in test [2], 20%.
Taken in the same sequence, the figures for `O=C1NN(C(=O)c2ccc(Cl)c(Cl)c2)[C@H](c2ccccc2)[C@H]1c1ccccc1` (relative stereo) [Example 75] were 60% and 40%.
On to `COc1cccc(NC(=O)N2NC(=O)[C@H](c3ccccc3)[C@H]2c2ccccc2)c1` (relative stereo) [Example 42], for which the IC50 in test [1] came to 0.78 µM. For the same molecule, the inhibition at 10 µM in test [2] was 37%.
In the case of `O=C1NN(C(=S)Nc2ccccc2)[C@H](c2ccccc2)[C@H]1c1ccccc1` (relative stereo) [Example 60], the values for the inhibition at 10 µM in test [1] and in test [2] were 34% and 37%, respectively.
For the molecule `O=C1NN(C(=O)Nc2ccc(Oc3ccccc3)cc2)[C@@H](c2ccccc2)[C@@H]1c1ccccc1` (relative stereo) [Example 37], the inhibition at 1 µM in test [1] was found to be 82%. Besides, the inhibition at 10 µM in test [2] came to 75%.
Regarding `O=C1NN(C(=O)Nc2ccc(Cl)c([N+](=O)[O-])c2)[C@H](c2ccccc2)[C@H]1c1ccccc1` (relative stereo) [Example 48], in test [1], the IC50 came to 0.08 µM. Moreover, in test [2], the inhibition at 10 µM came to 98%.
With `O=C(Nc1ccc(Cl)c(C(F)(F)F)c1)N1N[C@@H](c2ccccc2)[C@H](c2ccccc2)C1=O` (relative stereo) [Example 8, 2-[(4-Chloro-3-trifluoromethylphenyl)amino-carbonyl]-4,5-diphenyl-3-pyrazolidinone], the inhibition at 10 µM in test [1] was determined as 34%; in test [2] it was 2%.
Consider `O=C1NN(c2nc3ccc(Br)cc3s2)[C@@H](c2ccccc2)[C@@H]1c1ccccc1` (relative stereo) [Example 85], for which the results for the inhibition at 10 µM in test [1] and in test [2] were 78% and 19%, respectively.
For `O=C1NN(C(=O)Nc2ccc(Br)cc2)C(Cc2ccccc2)C1c1ccccc1` (centres unmarked) [Example 72], the inhibition at 10 µM in test [1] amounted to 88%; in test [2], 22%.
For `O=C1NN(C(=O)Nc2ccc(Cl)cc2)[C@@H](c2ccccc2)[C@@H]1c1ccccc1` (relative stereo) [Example 18], the 50% inhibitory concentration (IC50) in test [1] was 0.093 µM. Also, in test [2], the inhibition at 10 µM turned out to be 22%.
In the same order, the values of `CCCc1ccc(NC(=O)N2NC(=O)[C@@H](c3ccccc3)[C@@H]2c2ccccc2)cc1` (relative stereo) [Example 27] are 0.23 µM and 60%.
Regarding `O=C1NN(C(=S)Nc2cccc(Cl)c2Cl)[C@H](c2ccccc2)[C@H]1c1ccccc1` (relative stereo) [Example 64], in test [1], the concentration for half-maximal inhibition (IC50) worked out at 5.3 µM. Also, the inhibition at 1 µM in test [2] (at 1 μM) is 34%.
Take `O=C1NN(C(=O)NCc2ccccc2)[C@@H](c2ccccc2)[C@@H]1c1ccccc1` (relative stereo) [Example 96]: the inhibition at 10 µM worked out at 42% in test [1] and 13% in test [2].
Consider `CN1C(=O)[C@H](c2ccccc2)[C@@H](c2ccccc2)N1C(=O)Nc1cccc(Cl)c1Cl` (relative stereo) [Example 66], for which the inhibition at 10 µM in test [1] was determined as 40%; in test [2] it was 23%.
On to `O=C1NN(C(=O)Nc2cccc(C(F)(F)F)c2)[C@@H](c2ccccc2)[C@@H]1c1ccccc1` (relative stereo) [Example 39], for which the IC50 in test [1] amounted to 0.33 µM. Moreover, the inhibition at 10 µM in test [2] came to 52%.
As to `O=C1NN(C(=O)Sc2ccc(Br)cc2)[C@@H](c2ccccc2)[C@@H]1c1ccccc1` (relative stereo) [Example 81], the inhibition at 10 µM in test [1] worked out at 95%; in test [2] it was 59%.
For `O=C1NN(C(=O)Nc2ccc(OCCc3ccccc3)cc2)[C@@H](c2ccccc2)[C@@H]1c1ccccc1` (relative stereo) [Example 36], in test [1], the IC50 amounted to 0.45 µM. Also, in test [2], the inhibition at 10 µM was determined as 33%.
For `CC(=O)c1ccc(NC(=O)N2NC(=O)[C@@H](c3ccccc3)[C@@H]2c2ccccc2)cc1` (relative stereo) [Example 23], the IC50 in test [1] is 0.49 µM. The inhibition at 10 µM in test [2] is 23%.
Consider `O=C1NN(C(=O)Oc2ccccc2)[C@@H](c2ccccc2)[C@@H]1c1ccccc1` (relative stereo) [Example 79], for which the inhibition at 10 µM in test [1] worked out at 43%; in test [2], 9%.
As to `CCOC(=O)c1ccc(NC(=O)N2NC(=O)[C@@H](c3ccccc3)[C@@H]2c2ccccc2)cc1` (relative stereo) [Example 22], the inhibition at 1 µM in test [1] turned out to be 42%. Besides, the inhibition at 10 µM in test [2] was determined as 27%.
